Data set [1] concerns L6. Nature of the data set: Cytotoxicity against rat L6 cells after 72 hrs by alamar blue assay. Format: cell-based. The conditions noted are these: L6, 72 h.
Data set [2] relates to Leishmania donovani. Nature of the data set: Antitrypanosomal activity against amastigotes of Leishmania donovani MHOM/ET/67/L82 after 72 hrs by inverted microscope analysis. Format: functional, organism-based. The following applies: MHOM/ET/67/L82, 72 h.
The nature of data set [3]: Selectivity index, ratio of IC50 for rat L6 cells to IC50 for amastigotes of Leishmania donovani MHOM/ET/67/L82. Format: toxicity, cell-based. The following applies: read-out: Ratio IC50.
Data set [4] deals with Trypanosoma brucei. Nature of the data set: Inhibition of recombinant Trypanosoma brucei GAPDH assessed as oxidative phosphorylation of D-glyceraldehyde-3-phosphate to 1,3-bisphosphoglycerate at 5 uM by spectrophotometric method relative to 2-phenoxy-1,4-naphthoquinone.
Data set [5] is filed under the species Bos taurus. Nature of the data set: Inhibition of electron transport protein complex 2 in bovine hear mitochondria assessed as reduction of succinate-induced oxygen consumption at 5 uM.
In data set [6] the test system is Trypanosoma brucei rhodesiense. Nature of the data set: Antitrypanosomal activity against bloodstream forms of Trypanosoma brucei rhodesiense STIB 900 after 72 hrs by alamar blue assay. The class given is functional, organism-based. The following applies: STIB 900, 72 h. On the technique in general: Alamar Blue is a resazurin reagent that responds to reducing activity.

Data set [7] is described as follows: Selectivity index, ratio of IC50 for rat L6 cells to IC50 for bloodstream forms of Trypanosoma brucei rhodesiense STIB 900. The class given is toxicity, cell-based. The conditions noted are these: read-out: Ratio IC50.
For data set [8], the system named is Trypanosoma cruzi. Nature of the data set: Antitrypanosomal activity against trypomastigote forms of Trypanosoma cruzi Tulahuen C4 expressing LacZ gene infected in rat L6 cells after 96 hrs by inverted microscope analysis. The following applies: Tulahuen C4, L6, 96 h. The class given is functional, organism-based.
A short description of data set [9]: Selectivity index, ratio of IC50 for rat L6 cells to IC50 for trypomastigote forms of Trypanosoma cruzi Tulahuen C4. Format: toxicity, cell-based. The following applies: read-out: Ratio IC50.

Consider 29 compounds from ChEMBL document CHEMBL3603776, “2-Phenoxy-1,4-naphthoquinones: From a Multitarget Antitrypanosomal to a Potential Antitumor Profile” (J Med Chem, 2015).

The structures appear in SMILES notation. Activity calls are given as the source filed them. No cut-off for these calls is given here. Some results are limits rather than exact numbers.

Turning to `COc1cc([C@@H]2c3cc4c(cc3[C@H](O)[C@H]3COC(=O)[C@H]23)OCO4)cc(OC)c1OC` [PODOFILOX], it took 0.002 µM to reach half-maximal inhibition in data set [1] (IC50). This counts as single-digit nanomolar.

In the case of `COc1ccc(OC2=CC(=O)c3c(O)cccc3C2=O)cc1`, the IC50 (as a rule, the midpoint of a concentration-inhibition curve) in data set [2] came to 2.11 µM; in [1], 1.04 µM; in [6], 1.44 µM. Further, the selectivity ratio in [3] worked out at 0.5; in [7] it was 0.73. In [4], the inhibition (in general, the relative decrease from the control value, in per cent) came to 24%. In data set [5], the inhibition result is “inactive”.

On to `Cc1ccc(OC2=CC(=O)c3cccc(O)c3C2=O)cc1`, for which the IC50 in [8] was 7.39 µM; in data set [2], 2.99 µM; in [1] it was 4.03 µM; in [6] it was 2.58 µM. Moreover, the selectivity ratio was 0.54 in data set [9], 1.34 in data set [3] and 1.56 in [7]. Moreover, the inhibition in data set [4] turned out to be 44%. Also, the inhibition result in data set [5] was “inactive”.

For the compound `O=C1C=C(Oc2ccc(F)cc2)C(=O)c2cc3ccccc3cc21`, the figures for the IC50 in data set [2], in data set [1] and in [6] were 2.14 µM, 1.07 µM and 1.21 µM, respectively. For the same compound, the results for the selectivity ratio in [3] and in data set [7] were 0.5 and 0.88, respectively. Moreover, in data set [4], the inhibition amounted to 32%. Further, the inhibition entry in data set [5] is “inactive”.

On to `O=C1C=C(Oc2ccccc2)C(=O)c2cc3ccccc3cc21`, for which the inhibition in data set [4] was determined as 68%.

On to `COc1ccc(OC2=CC(=O)c3cccc(O)c3C2=O)cc1`, for which the half-inhibitory concentration (IC50) in data set [2] was found to be 3.13 µM; in data set [1], 1.04 µM; in data set [6] it was 1.71 µM. Further, the selectivity ratio in data set [3] was determined as 0.33; in [7], 0.61. Further, the inhibition in data set [4] was determined as 76%. Moreover, the inhibition result in data set [5] was “inactive”.

Regarding `O=C(Cn1ccnc1[N+](=O)[O-])NCc1ccccc1` [BENZNIDAZOLE], the half-maximal inhibitory concentration (IC50) in [1] was more than 384 µM.

As for `COc1ccc(OC2=CC(=O)c3cccc(OC)c3C2=O)cc1`, the half-inhibitory concentration (IC50) in data set [2] worked out at 22.5 µM; in data set [1], 1.09 µM; in data set [6], 6.03 µM. For the same compound, the results for the selectivity ratio in data set [3] and in data set [7] were 0.05 and 0.18, respectively. Also, the inhibition in data set [4] was 48%. For the same compound, the inhibition entry in data set [5] was “inactive”.

In the case of `Cc1ccc(OC2=CC(=O)c3c(O)cccc3C2=O)cc1`, the results for the half-inhibitory concentration (IC50) in [2], in [1] and in data set [6] were 5.46 µM, 1.03 µM and 2.37 µM, respectively. For the same compound, the selectivity ratio in data set [3] turned out to be 0.19; in data set [7], 0.44. In addition, the inhibition in data set [4] is 40%. Also, in data set [5], the inhibition result was “inactive”.

Turning to `CC(=O)Nc1ccc(OC2=CC(=O)c3ccccc3C2=O)cc1`, the IC50 in data set [8] was 4.17 µM; in [2] it was 4.04 µM; in [1], 3.35 µM; in [6] it was 2.4 µM. Besides, the selectivity ratio in data set [9] worked out at 0.8; in [3], 0.83; in data set [7] it was 1.39. Moreover, the inhibition in data set [4] came out at 68%. In [5], the inhibition result was “inactive”.

With `COc1ccc(OC2=CC(=O)c3ccccc3C2=O)cc1`, the IC50 in data set [8] was determined as 4.17 µM; in data set [2], 5.32 µM; in [1], 6.1 µM; in data set [6] it was 2.43 µM. Further, the selectivity ratio in [9] came out at 1.46; in data set [3], 1.15; in [7], 2.51. Besides, the inhibition in data set [4] was determined as 28%. In addition, the inhibition entry in data set [5] was “inactive”.

With `COc1cccc2c1C(=O)C=C(Oc1ccc(NC(C)=O)cc1)C2=O`, the IC50 in data set [8] was determined as 4.06 µM; in [2], 4.77 µM; in [1], 4.89 µM; in data set [6] it was 0.67 µM. For the same compound, the results for the selectivity ratio in data set [9], in [3] and in data set [7] were 1.2, 1.02 and 7.3, respectively. Further, in data set [4], the inhibition came to 52%. Moreover, the inhibition entry in data set [5] is “inactive”.

For `COc1cccc2c1C(=O)C(Oc1ccc(C)cc1)=CC2=O`, the 50% inhibitory concentration (IC50) in data set [2] amounted to 10.9 µM; in data set [1], 0.75 µM; in [6], 2.18 µM. For the same compound, the selectivity ratio in data set [3] turned out to be 0.07; in [7] it was 0.34. For the same compound, the inhibition in data set [4] came out at 20%. The inhibition result in [5] was “inactive”.

For the compound `CC(=O)Nc1ccc(OC2=CC(=O)c3cccc(O)c3C2=O)cc1`, the IC50 in [2] came to 2.33 µM; in data set [1] it was 0.15 µM; in data set [6], 0.65 µM. Also, the results for the selectivity ratio in data set [3] and in data set [7] were 0.07 and 0.24, respectively. In addition, the inhibition in [4] is 48%. Further, in [5], the inhibition result was “inactive”.

Turning to `O=C1C=C(Oc2ccc(F)cc2)C(=O)c2c(O)cccc21`, the values for the IC50 in data set [2], in data set [1] and in data set [6] were 1.33 µM, 0.74 µM and 1.37 µM, respectively. In addition, the values for the selectivity ratio in [3] and in data set [7] were 0.55 and 0.54, respectively. In addition, the inhibition in data set [4] stood at 128%. Also, the inhibition result in [5] is “inactive”.

In the case of `CC(=O)Nc1ccc(OC2=CC(=O)c3cc4ccccc4cc3C2=O)cc1`, the IC50 in data set [2] was found to be 3.25 µM; in data set [1], 0.19 µM; in [6], 1.21 µM. The selectivity ratio in data set [3] is 0.06; in data set [7] it was 0.16. Besides, the inhibition in data set [4] was 90%. For the same compound, the inhibition result in data set [5] is “inactive”.

Regarding `COc1cccc2c1C(=O)C=C(Oc1ccccc1)C2=O`, the values for the IC50 in data set [2], in [1] and in [6] were 5.6 µM, 1.85 µM and 0.68 µM, respectively. The selectivity ratio worked out at 0.33 in [3] and 2.74 in data set [7]. In [4], the inhibition amounted to 88%. The inhibition entry in data set [5] was “inactive”.

As to `COc1cccc2c1C(=O)C(Oc1ccc(NC(C)=O)cc1)=CC2=O`, the IC50 in [2] is 5.87 µM; in [1] it was 0.65 µM; in data set [6], 4.15 µM. For the same compound, the figures for the selectivity ratio in data set [3] and in data set [7] were 0.11 and 0.16, respectively. Moreover, the inhibition in data set [4] is 64%. Further, the inhibition result in [5] was “inactive”.

For `CCCCCCCCCCCCCCCCOP(=O)([O-])OCC[N+](C)(C)C` [MILTEFOSINE], in [3], the selectivity ratio was found to be 462.

As for `O=C1C=C(Oc2ccccc2)C(=O)c2c(O)cccc21`, the values for the IC50 in [2], in data set [1] and in data set [6] were 2.96 µM, 1.5 µM and 0.85 µM, respectively. Further, the values for the selectivity ratio in [3] and in data set [7] were 0.51 and 1.76, respectively. Moreover, in [4], the inhibition was 84%. The inhibition result in [5] was “inactive”.

Consider `COc1ccc(OC2=CC(=O)c3c(OC)cccc3C2=O)cc1`, for which the concentration for half-maximal inhibition (IC50) was determined as 3.09 µM in data set [2], 1.58 µM in [1] and 0.64 µM in data set [6]. The selectivity ratio in [3] was found to be 0.51; in data set [7], 2.46. Further, the inhibition in data set [4] came out at 44%. In addition, in [5], the inhibition entry is “inactive”.

For `COc1cccc2c1C(=O)C=C(Oc1ccc(F)cc1)C2=O`, the half-maximal inhibitory concentration (IC50) in data set [2] was determined as 3.72 µM; in data set [1] it was 1.34 µM; in [6], 0.67 µM. Also, the results for the selectivity ratio in [3] and in data set [7] were 0.36 and 1.99, respectively. Further, the inhibition in [4] came to 120%. In data set [5], the inhibition result is “inactive”.

As for `Nc1nc(N)nc(Nc2ccc([As]3SCC(CO)S3)cc2)n1` (stereo not drawn) [MELARSOPROL], the selectivity ratio in data set [7] worked out at 1830.

Consider `Cc1ccc(OC2=CC(=O)c3cc4ccccc4cc3C2=O)cc1`, for which the figures for the half-inhibitory concentration (IC50) in data set [2], in data set [1] and in [6] were 1.16 µM, 0.13 µM and 0.73 µM, respectively. Besides, the selectivity ratio in [3] is 0.11; in [7], 0.17. Moreover, the inhibition in data set [4] turned out to be 0%. Further, the inhibition entry in data set [5] is “inactive”.

Regarding `O=C1C=C(Oc2ccc(F)cc2)C(=O)c2ccccc21`, the IC50 in data set [8] came to 3.91 µM; in data set [2], 1.82 µM; in [1] it was 4.51 µM; in [6], 4.06 µM. Moreover, the figures for the selectivity ratio in data set [9], in data set [3] and in [7] were 1.15, 2.47 and 1.11, respectively. The inhibition in [4] amounted to 80%. In addition, the inhibition result in data set [5] was “inactive”.

For the compound `O=C1C(Oc2ccc(F)cc2)=CC(=O)c2c(O)cccc21`, the figures for the IC50 in data set [2], in data set [1] and in data set [6] were 2.99 µM, 1.41 µM and 2.69 µM, respectively. The selectivity ratio was 0.47 in data set [3] and 0.52 in data set [7]. In addition, the inhibition in [4] came to 136%. In addition, the inhibition result in data set [5] is “inactive”.

For the compound `COc1cccc2c1C(=O)C=C(Oc1ccc(C)cc1)C2=O`, the IC50 amounted to 2.64 µM in data set [2], 1.49 µM in data set [1] and 0.55 µM in [6]. In addition, the selectivity ratio was found to be 0.57 in [3] and 2.71 in data set [7]. In addition, in [4], the inhibition came out at 40%. The inhibition entry in data set [5] is “inactive”.

Turning to `CC(=O)Nc1ccc(OC2=CC(=O)c3c(O)cccc3C2=O)cc1`, the half-maximal inhibitory concentration (IC50) in [2] is 3.8 µM; in data set [1] it was 0.59 µM; in data set [6], 2.17 µM. For the same compound, the selectivity ratio was determined as 0.15 in data set [3] and 0.27 in data set [7]. Besides, the inhibition in data set [4] is 0%. Further, the inhibition entry in [5] was “inactive”.

Take `COc1cccc2c1C(=O)C(Oc1ccccc1)=CC2=O`: the IC50 in [2] stood at 13.1 µM; in data set [1], 0.64 µM; in data set [6] it was 1.76 µM. Moreover, the selectivity ratio in [3] came to 0.05; in data set [7], 0.36. In addition, the inhibition in data set [4] came to 72%. In addition, the inhibition result in data set [5] was “inactive”.
